# How the values were obtained:
# JAK-2 enzyme = JAK-2 enzyme (Homo sapiens, UniProt O60674); assay: JAK2 inhibition assay (33P incorporation into poly(Glu)4Tyr); assay type: biochemical; conditions: 15 μM poly(Glu)4Tyr, 12 μM ATP
# Experimental: (§1) Compounds were screened for their ability to inhibit JAK3 using the assay shown below. Reactions were carried out in a kinase buffer containing 100 mM HEPES (pH 7.4), 1 mM DTT, 10 mM MgCl2, 25 mM NaCl, and 0.01% BSA. Substrate concentrations in the assay were 5 μM ATP (200 uCi/μmole ATP) and 1 μM poly(Glu)4Tyr. Reactions were carried out at 25° C. and 1 nM JAK3.
# (§2) To each well of a 96 well polycarbonate plate was added 1.5 μl of a candidate JAK3 inhibitor along with 50 μl of kinase buffer containing 2 μM poly(Glu)4Tyr and 10 μM ATP. This was then mixed and 50 μl of kinase buffer containing 2 nM JAK3 enzyme was added to start the reaction. After 20 minutes at room temperature (25° C.), the reaction was stopped with 50 μl of 20% trichloroacetic acid (TCA) that also contained 0.4 mM ATP. The entire contents of each well were then transferred to a 96 well glass fiber filter plate using a TomTek Cell Harvester. After washing, 60 μl of scintillation fluid was added and ^33P incorporation detected on a Perkin Elmer TopCount.
# The assays were as described above in Example 36 except that JAK-2 enzyme was used, the final poly(Glu)4Tyr concentration was 15 μM, and final ATP concentration was 12 μM.
# JAK3 = target: T1, JAK3 (Homo sapiens, UniProt P52333); assay: JAK3 inhibition assay (33P incorporation into poly(Glu)4Tyr); assay type: biochemical; conditions: 1 nM JAK3; 1 μM poly(Glu)4Tyr, 5 μM ATP, 25° C.; read-out: JAK3 enzyme inhibition (Ki)
# T1 sequence (P52333 1-1124): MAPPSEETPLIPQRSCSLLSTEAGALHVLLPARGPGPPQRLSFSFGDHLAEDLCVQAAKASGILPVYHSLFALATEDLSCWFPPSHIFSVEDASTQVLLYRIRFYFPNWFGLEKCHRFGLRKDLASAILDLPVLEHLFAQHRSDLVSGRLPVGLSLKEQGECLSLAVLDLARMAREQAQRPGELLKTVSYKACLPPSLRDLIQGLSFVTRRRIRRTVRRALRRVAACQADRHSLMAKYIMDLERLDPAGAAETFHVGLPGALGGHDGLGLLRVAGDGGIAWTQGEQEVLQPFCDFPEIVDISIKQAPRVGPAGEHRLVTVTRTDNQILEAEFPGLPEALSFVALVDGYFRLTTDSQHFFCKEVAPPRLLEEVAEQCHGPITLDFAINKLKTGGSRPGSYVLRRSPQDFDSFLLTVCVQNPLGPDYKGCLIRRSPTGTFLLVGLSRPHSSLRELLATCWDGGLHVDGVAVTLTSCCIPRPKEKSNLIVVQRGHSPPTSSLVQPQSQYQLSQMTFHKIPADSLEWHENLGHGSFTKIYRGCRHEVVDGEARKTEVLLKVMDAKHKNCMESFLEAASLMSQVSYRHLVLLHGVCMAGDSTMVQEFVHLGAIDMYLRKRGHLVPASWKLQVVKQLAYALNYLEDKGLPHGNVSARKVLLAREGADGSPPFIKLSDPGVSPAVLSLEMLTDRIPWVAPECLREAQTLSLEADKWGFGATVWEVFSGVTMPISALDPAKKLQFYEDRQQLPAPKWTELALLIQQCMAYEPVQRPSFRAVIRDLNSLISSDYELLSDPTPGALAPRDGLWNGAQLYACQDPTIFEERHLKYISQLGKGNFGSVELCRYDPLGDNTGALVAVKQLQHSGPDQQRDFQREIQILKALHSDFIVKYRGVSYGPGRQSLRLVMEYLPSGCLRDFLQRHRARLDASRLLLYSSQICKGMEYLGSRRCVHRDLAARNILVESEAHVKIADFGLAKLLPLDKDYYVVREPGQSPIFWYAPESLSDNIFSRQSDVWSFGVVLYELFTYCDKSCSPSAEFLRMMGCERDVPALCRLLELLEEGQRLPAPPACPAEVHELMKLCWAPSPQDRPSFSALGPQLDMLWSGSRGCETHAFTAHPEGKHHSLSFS
# Experimental: as §1, §2
# Chain of JAK-2 enzyme (O60674 whole entry): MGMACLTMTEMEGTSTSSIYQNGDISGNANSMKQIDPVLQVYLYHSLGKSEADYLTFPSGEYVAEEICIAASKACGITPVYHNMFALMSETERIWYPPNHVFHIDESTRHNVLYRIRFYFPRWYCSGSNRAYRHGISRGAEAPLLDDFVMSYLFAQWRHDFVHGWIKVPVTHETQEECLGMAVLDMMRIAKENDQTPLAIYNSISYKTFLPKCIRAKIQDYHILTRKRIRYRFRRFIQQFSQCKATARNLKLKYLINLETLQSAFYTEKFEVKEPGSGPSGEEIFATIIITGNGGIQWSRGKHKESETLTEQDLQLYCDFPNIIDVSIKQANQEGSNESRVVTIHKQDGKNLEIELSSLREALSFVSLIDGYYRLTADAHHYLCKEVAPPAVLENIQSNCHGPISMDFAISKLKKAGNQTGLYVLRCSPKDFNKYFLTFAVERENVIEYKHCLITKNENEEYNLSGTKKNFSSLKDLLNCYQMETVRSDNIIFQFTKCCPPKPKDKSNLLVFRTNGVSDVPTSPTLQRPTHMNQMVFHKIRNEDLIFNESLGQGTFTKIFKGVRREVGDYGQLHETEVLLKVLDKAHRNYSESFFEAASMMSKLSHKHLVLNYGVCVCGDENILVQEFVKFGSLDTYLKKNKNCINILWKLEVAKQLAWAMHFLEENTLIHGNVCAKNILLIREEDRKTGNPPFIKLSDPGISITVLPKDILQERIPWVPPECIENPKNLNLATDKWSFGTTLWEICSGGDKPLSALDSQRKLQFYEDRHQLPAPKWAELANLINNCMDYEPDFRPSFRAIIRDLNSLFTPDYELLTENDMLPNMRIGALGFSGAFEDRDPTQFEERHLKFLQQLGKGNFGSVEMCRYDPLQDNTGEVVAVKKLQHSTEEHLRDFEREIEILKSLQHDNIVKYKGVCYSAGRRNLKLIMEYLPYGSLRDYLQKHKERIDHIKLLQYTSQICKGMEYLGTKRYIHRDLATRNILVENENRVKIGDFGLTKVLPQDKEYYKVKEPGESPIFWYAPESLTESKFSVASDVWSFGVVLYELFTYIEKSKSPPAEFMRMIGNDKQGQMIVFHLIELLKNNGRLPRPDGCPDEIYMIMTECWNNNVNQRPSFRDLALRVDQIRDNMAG
compound,measurement,setting,value
CN(CC#N)C(=O)c1cc(-c2ncnc3[nH]ccc23)cn1C [Compound 236],Ki,JAK-2 enzyme,< 100 nM
same,Ki,JAK3,100 to 500 nM

# Reference: patent publication US8741912B2, “Deazapurines useful as inhibitors of Janus kinases” (Vertex Pharmaceuticals Incorporated, priority 2006, dated 2014)
